Reference: US7893066B2, “Pyridol[2,3-B]pyrazinones for use as stearoyl CoA desaturase inhibitors” (Gilead Palo Alto, Inc., priority 2006, dated 2011)

These molecules were tested against T1, stearoyl-CoA desaturase (SCD) (Rattus norvegicus, UniProt P07308) (assay: SCD assay, rat liver microsomes with [3H]stearoyl CoA (adapted from Talamo and Bloch)). Conditions: second table, same SCD assay.
T1 construct: from tissue; host or cells: liver microsomes of male Sprague Dawley rats, with SCD induced by a carbohydrate-rich diet
T1 sequence (P07308 1-358): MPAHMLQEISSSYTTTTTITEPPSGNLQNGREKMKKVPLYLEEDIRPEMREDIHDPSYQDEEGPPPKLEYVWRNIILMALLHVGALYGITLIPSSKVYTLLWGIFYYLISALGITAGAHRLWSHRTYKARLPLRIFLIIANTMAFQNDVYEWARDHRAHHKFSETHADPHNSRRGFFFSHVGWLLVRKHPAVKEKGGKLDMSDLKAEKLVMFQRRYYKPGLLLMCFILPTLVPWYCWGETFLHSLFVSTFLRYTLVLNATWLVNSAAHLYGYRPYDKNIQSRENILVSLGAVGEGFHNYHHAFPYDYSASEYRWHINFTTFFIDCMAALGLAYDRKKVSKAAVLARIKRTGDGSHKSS
Assay type: biochemical
Text: The identification of compounds of the invention as SCD inhibitors was readily accomplished using the SCD enzyme and microsomal assay procedure described in Talamo and Bloch (1969) Analytical Biochemistry 29:300-304.
The rat liver microsomes were collected according to the procedure described in Ozols (1990) Methods Enzm, 182:225.
Male Spraque Dawley Rats were placed on regimented fasting protocol for one week to stimulate SCD enzymatic activity. 48-hour periods were alternated between feeding and fasting to induce and down-regulate SCD activity with SCD activity being induced via carbohydrate rich diet prior to liver perfusion and collection.
The rats were anesthetized with Isoflurane inhalation anesthetic, the liver perfused with cold phosphate buffered saline (PBS), weighed, and chilled in cold homogenization buffer (250 mM sucrose, 10 mM Tris, 1 mM EDTA, pH 7.6.
The livers were finely minced and placed in homogenization tube. 40 mL of homogenization buffer was added to the homogenization tube and the liver homogenized and centrifuged in a pre-chilled SLA-600 TC at 800G rotor for 10 min at 4° C.
Following centrifugation, the supernatant was collected and the pellet removed and discarded. This supernatant was then centrifuged at 10,000G for 35 minutes. Following centrifugation, the supernatant was collected and the pellet discarded. The supernatant was further centrifuged in a pre-chilled 45-Ti rotor at 130,000 G (41,000 RPM) for 90 minutes at 4° C.
The supernatant was then aspirated off and the collected microsomal pellet washed in 25 mL of Glycerol PBS (1×PBS 7.4, 20% Glycerol) and resuspended in 4-5 volumes of Glycerol PBS.
The protein concentration of the microsomal preparation was determined by BCA assay (Pierce) and the microsomes were aliquoted and stored at −80° C.
Biobeads were ground to a smaller size in a mortar and pestle and filtered through 300 μM mesh and then resuspended in 3.6% TCA.
SCD was determined in the desaturase assay buffer. This assay buffer contained 0.1 M Tris buffer, pH 7.2, 2 mM NADH, 4.8 mM ATP, 0.5 mM CoA, 4.8 mM MgCl2, and 0.1% BSA.
1 μl of each compound of Formula I was added to an assay plate by a low volume (0.5-10 μL) multichannel pipette. A DMSO control was also prepared. The microsomes were quickly thawed and added to assay buffer so that a concentration of 1-0.1 mg/ml was achieved (0.5-0.05 mg/ml assay final). 50 μl of the microsome suspension in assay buffer was then added into each well in the compound assay plate, the plate was covered, and the microsomes preincubated with the compounds for 30-60 minutes on the orbital shaker, 50-75 rpm, at room temperature.
After preincubation, the reaction was initiated by the addition of 50 μl of substrate solution (20 μM Stearoyl CoA, [3H]Stearoyl CoA, 74nCi) to the preincubated microsomes/compound suspensions in MilliQ (Millipore) H2O. The reaction mixtures were then incubated for 45 minutes on the orbital shaker at 50-75 rpm at room temperature.
The reaction was terminated by the addition of 10 μl of 21% trichloroacetic acid (TCA) to the reaction mixture followed incubation on the orbital shaker for 30 minutes at 50-75 rpm at room temperature followed by centrifugation for 5 minutes at 3700 rpm.
50 μl of a 6% Bio-Bead suspension in H2O was added to the reaction mixture and the assay plate was sealed. The Bio-Bead mixture was incubated on the orbital shaker for 1 to 24 hours, 100-150 rpm at room temperature, and then the mixture was centrifuged at 2000g for 5 minutes to pellet the Bio-Beads.
25 μl of the supernatant was harvested from each well and transferred to a detection plate. 100 μl of OptiPhase SuperMix scinitillation cocktail (containing sufficient NaOH to neutralize the TCA) was added and the solutions mixed by vigorous shaking (300-400 rpm) for 5 minutes at room temperature.

Row | Molecule | IC50
1 | Cc1nc2ccc(NCc3cccc(C(F)(F)F)c3)cc2n(CCC(=O)NCCO)c1=O [compound 50, N-(2-hydroxyethyl)-3-(3-methyl-2-oxo-7-(3-(trifluoromethyl)benzylamino)quinoxalin-1(2H)-yl)propanamide] | 230 nM
2 | (R)-3-(2-(4-methoxyphenyl)-3-oxo-6-(3-(trifluoromethyl)benzylamino)pyrido[2,3-b]pyrazin-4(3H)-yl)butanamide [compound 22] | 67 nM
3 | (S)-3-(2-(4-methoxyphenyl)-3-oxo-6-(3-(trifluoromethyl)benzylamino)pyrido[2,3-b]pyrazin-4(3H)-yl)butanamide [compound 39] | 19000 nM
4 | (S)-2-hydroxy-N-(2-(3-methyl-2-oxo-7-(3-(trifluoromethyl)benzylamino)quinoxalin-1(2H)-yl)ethyl)propanamide [compound 48] | 8000 nM
5 | 2,3-dihydroxy-N-(2-(3-methyl-2-oxo-7-(3-(trifluoromethyl)benzylamino)quinoxalin-1(2H)-yl)ethyl)propanamide [compound 52] | 360 nM
6 | COc1ccc(-c2nc3ccc(NCc4cccc(C(F)(F)F)c4)nc3n(NC(=O)COC(C)=O)c2=O)cc1 [compound 45, 2-(2-(4-methoxyphenyl)-3-oxo-6-(3-(trifluoromethyl)benzylamino)pyrido[2,3-b]pyrazin-4(3H)-ylamino)-2-oxoethyl acetate] | 6700 nM
7 | COc1ccc(-c2nc3ccc(NCc4ccc(Cl)c(Cl)c4)nc3n(CCCC(N)=O)c2=O)cc1 [compound 11, 4-(6-(3,4-dichlorobenzylamino)-2-(4-methoxyphenyl)-3-oxopyrido[2,3-b]pyrazin-4(3H)-yl)butanamide] | 150 nM
8 | CC(=O)NCCN1C(=O)C(C)Nc2cc(NC(=O)OCc3ccccc3)cnc21 (stereo not drawn) [compound 44, benzyl 4-(2-acetamidoethyl)-2-methyl-3-oxo-1,2,3,4-tetrahydropyrido[2,3-b]pyrazin-7-ylcarbamate] | 240 nM
9 | 3-(6-(3,4-dichlorobenzylamino)-2-(4-methoxyphenyl)-3-oxopyrido[2,3-b]pyrazin-4(3H)-yl)-N-methylpropanamide [compound 12] | 95 nM
10 | COc1ccc(-c2nc3ccc(NCc4ccc(C)c(C)c4)cc3n(CCNC(C)=O)c2=O)cc1 [compound 57, N-(2-(7-(3,4-dimethylbenzylamino)-3-(4-methoxyphenyl)-2-oxoquinoxalin-1(2H)-yl)ethyl)acetamide] | 26 nM
11 | COc1ccc(-c2nc3ccc(NCc4ccc(F)c(C)c4)cc3n(CCNC(C)=O)c2=O)cc1 [compound 63, N-(2-(7-(4-fluoro-3-methylbenzylamino)-3-(4-methoxyphenyl)-2-oxoquinoxalin-1(2H)-yl)ethyl)acetamide] | 5 nM
12 | COc1ccc(-c2nc3ccc(NCc4cccc(F)c4)nc3n(CCNC(C)=O)c2=O)cc1 [compound 10, N-(2-(6-(3-fluorobenzylamino)-2-(4-methoxyphenyl)-3-oxopyrido[2,3-b]pyrazin-4(3H)-yl)ethyl)acetamide] | 18000 nM
13 | COc1ccc(-c2nc3ccc(NCc4cccc(OC(F)(F)F)c4)nc3n(CCNC(C)=O)c2=O)cc1 [compound 20] | 260 nM
14 | COc1ccc(-c2nc3ccc(NCc4cccnc4)nc3n(CCNC(C)=O)c2=O)cc1 [compound 9, N-(2-(2-(4-methoxyphenyl)-3-oxo-6-(pyridin-3-ylmethylamino)pyrido[2,3-b]pyrazin-4(3H)-yl)ethyl)acetamide] | 30000 nM
15 | COc1ccc(-c2nc3ccc(NCc4cc(C(F)(F)F)ccn4)cc3n(CCNC(C)=O)c2=O)cc1 [compound 64, N-(2-(3-(4-methoxyphenyl)-2-oxo-7-((4-(trifluoromethyl)pyridin-2-yl)methylamino)quinoxalin-1(2H)-yl)ethyl)acetamide] | 39 nM
16 | COc1ccc(-c2nc3ccc(NCc4ccc(Cl)c(Cl)c4)nc3n([C@H]3CCNC3)c2=O)cc1 [compound 2, (S)-6-(3,4-dichlorobenzylamino)-2-(4-methoxyphenyl)-4-(pyrrolidin-3-yl)pyrido[2,3-b]pyrazin-3(4H)-one] | 1800 nM
17 | CC(=O)NCCn1c(=O)cnc2ccc(NCc3ccc(Cl)c(Cl)c3)nc21 [compound 14, N-(2-(6-(3,4-dichlorobenzylamino)-3-oxopyrido[2,3-b]pyrazin-4(3H)-yl)ethyl)acetamide] | 510 nM
18 | COc1ccc(-c2nc3ccc(NCCc4cccc(Cl)c4)cc3n(CCNC(C)=O)c2=O)cc1 [compound 54, N-(2-(7-(3-chlorophenethylamino)-3-(4-methoxyphenyl)-2-oxoquinoxalin-1(2H)-yl)ethyl)acetamide] | 100 nM
19 | COc1ccc(-c2nc3ccc(NCc4ccc(Cl)c(Cl)c4)nc3n(CCNC(=O)CNC(C)=O)c2=O)cc1 [compound 41, 2-acetamido-N-(2-(6-(3,4-dichlorobenzylamino)-2-(4-methoxyphenyl)-3-oxopyrido[2,3-b]pyrazin-4(3H)-yl)ethyl)acetamide] | 1100 nM
20 | CCOC(=O)c1nc2ccc(NCc3cccc(C(F)(F)F)c3)nc2n(CCNC(C)=O)c1=O [compound 17, ethyl 4-(2-acetamidoethyl)-3-oxo-6-(3-(trifluoromethyl)benzylamino)-3,4-dihydropyrido[2,3-b]pyrazine-2-carboxylate] | 6700 nM
21 | COc1ccc(-c2nc3cc(NCc4ccc(Cl)c(Cl)c4)cnc3n(CCNC(C)=O)c2=O)cc1 [compound 42, N-(2-(7-(3,4-dichlorobenzylamino)-2-(4-methoxyphenyl)-3-oxopyrido[2,3-b]pyrazin-4(3H)-yl)ethyl)acetamide] | 2200 nM
22 | COc1ccc(-c2nc3ccc(NCc4cccc(C)c4)nc3n(CCNC(C)=O)c2=O)cc1 [compound 18, N-(2-(2-(4-methoxyphenyl)-6-(3-methylbenzylamino)-3-oxopyrido[2,3-b]pyrazin-4(3H)-yl)ethyl)acetamide] | 380 nM
23 | 3-(2-(4-(2-methoxyethoxy)phenyl)-3-oxo-6-(3-(trifluoromethyl)benzylamino)pyrido[2,3-b]pyrazin-4(3H)-yl)propanamide [compound 30] | 190 nM
24 | CCCc1ccc(-c2nc3ccc(NCc4cccc(C(F)(F)F)c4)nc3n(CCNC(C)=O)c2=O)cc1 [compound 24, N-(2-(3-oxo-2-(4-propylphenyl)-6-(3-(trifluoromethyl)benzylamino)pyrido[2,3-b]pyrazin-4(3H)-yl)ethyl)acetamide] | 100 nM
25 | COC(=O)c1cccc(CNc2ccc3nc(-c4ccc(OC)cc4)c(=O)n(CCNC(C)=O)c3n2)c1 [compound 15, methyl 3-((4-(2-acetamidoethyl)-2-(4-methoxyphenyl)-3-oxo-3,4-dihydropyrido[2,3-b]pyrazin-6-ylamino)methyl)benzoate] | 19000 nM
26 | Cc1nc2ccc(NCc3cccc(C(F)(F)F)c3)cc2n(CCNC(=O)CCO)c1=O [compound 49, 3-hydroxy-N-(2-(3-methyl-2-oxo-7-(3-(trifluoromethyl)benzylamino)quinoxalin-1(2H)-yl)ethyl)propanamide] | 1100 nM
27 | COc1ccc(-c2nc3ccc(NCc4ccc(Cl)c(Cl)c4)nc3n(C(C)CC(N)=O)c2=O)cc1 (stereo not drawn) [compound 5, 3-(6-(3,4-dichlorobenzylamino)-2-(4-methoxyphenyl)-3-oxopyrido[2,3-b]pyrazin-4(3H)-yl)butanamide] | 53 nM
